In this experiment the test system is HRAS cells, caspase 3/7 apoptosis luminescence, multiple timepoints. The experiment in a line: caspase 3/7 apoptosis readout in HRAS cells, mechanism study for HRAS target identification, cell-based, caspase 3/7 luminescence, plate reader, dry powder (AID 720625).

Records with an inconclusive call do not appear.

`COc1ccc(N(C(=O)CCl)C(C(=O)NCCc2ccccc2)c2cccs2)cc1Cl` (centres undefined): the AC40 is 7.66 µM. The compound further registered an AC40 (measured here: timepoint 1) of 22.2 µM. Also, the AC40 (measured here: timepoint 2) was 0.177 µM. For the same compound, for the setting “measured here: timepoint 3”, the AC40 was found to be 0.551 µM.

(Values after PubChem BioAssay AID720625 (Broad Institute, 2013).)
